The values below are quoted from earlier work in US5610177A, “Acylated amino acids as endothelin antagonists” (Warner-Lambert Company, priority 1994, dated 1997).

The conditions of data set [1]: local intra-arterial administration, rats; cited from earlier work.
The subject of another data set is liver. As to conditions: cited from earlier work.
Data set [2] relates to Endothelin receptor subtype-A. The settings on record: intravenous infusion; cited from earlier work.
The test system of data set [3] is Endothelin receptor subtype-A. As to conditions: intravenous infusion, stroke prone spontaneous hypertensive rats; cited from earlier work.
Data set [4] has as its system Endothelin receptor. As to conditions: rat model; cited from earlier work.
The test system of data set [5] is Endothelin receptor. The settings on record: i.v., cited from earlier work.
The test system of data set [6] is ETA receptor. As to conditions: conscious rats; cited from earlier work.
Data set [7] deals with ETA receptor. The settings on record: rats, i.v.; cited from earlier work.
For data set [8], the system named is ETA receptor. As to conditions: rabbit retinal arteries, i.v.; cited from earlier work.
In the next data set the test system is ETB. As to conditions: isolated, endothelium-intact porcine pulmonary arteries; cited from earlier work.
For data set [9] the following is noted: intracerebroventricular, rats; cited from earlier work.
For a further data set, the system named is ETA. The settings on record: cited from earlier work.
For data set [10] the following is noted: conditions of hypoglycemia; cited from earlier work.

Where a SMILES comes first, the peptide text is derived from it. Where no end group is shown, it is not given here. [ ]: non-standard residue; d: D form.

For the compound Endothelin, the “small intestinal mucosal damage” value in [1] was “induce small intestinal mucosal damage in rats in a dose-dependent manner”. In the data set on liver, the “hepatic vasoconstriction and glucose output” value was “sustained vasoconstriction of the hepatic vasculature and a significant increase in hepatic glucose output”.
On to `CC(C)C[C@@H]1NC(=O)[C@@H](C(C)C)NC(=O)[C@@H]2CCCN2C(=O)[C@@H](CC(=O)O)NC(=O)[C@@H](Cc2c[nH]c3ccccc23)NC1=O` [BQ-123] (cyclo(L[dW][dD]P[dV])), for which the “prevention of acute hypoxia induced pulmonary hypertension” value in [2] is reported as “effective in the prevention of acute hypoxia induced pulmonary hypertension”. The blood pressure entry in [3] is on record as “decreased blood pressure significantly”. In addition, the “acute CsA toxicity” value in the data set with Endothelin receptor [4] is given as “suppressed”. Further, in the data set with Endothelin receptor [5] (early phase of ischemic acute renal failure in rats), the “mitochondrial Ca2+ accumulation” value is “prevents the mitochondrial [Ca^2+ ] accumulation”. Also, the “protection of proximal tubular cells” value with Endothelin receptor [5] (ischemic acute renal failure in rats) is “protects proximal tubular cells from post-ischemic degeneration”. Also, the “antagonism of ET-1 induced pressor response” value with ETA receptor [6] was “effective in antagonizing the ET-1 induced pressor response”. For the same compound, the renal vascular resistance entry in the data set on ETA receptor [7] was “blocked”. Further, the ET-1 induced vasoconstriction entry in the data set on ETA receptor [8] was “blocked”.
With “N-Acetyl-ET [N-Acetyl-ET [10-21,11,15-Ala]]”, the vasorelaxation entry in the data set on ETB is on record as “caused vasorelaxation”.
“Endothelin-1 (CSCSSLMDKECVYFCHLDIIW; not fully specified (bridges); cysteine pairing not given here; UniProt P05305 53-73, looked up) [ET-1]”: the behavioral effects entry in [9] was “evoke several behavioral effects”.
Regarding `Cc1noc(NS(=O)(=O)c2cccc3c(N(C)C)cccc23)c1C` [5-(Dimethylamino)-N-(3,4-dimethyl-5-isoxazolyl)-1-naphthalenesulfonamide], the oral antihypertensive effect entry in the data set on ETA is on record as “oral antihypertensive effect”.
For “ET-3: one of a family of structurally similar bicyclic peptides (CTCFTYKDKECVYYCHLDIIW; not fully specified (bridges); cysteine pairing not given here; UniProt P14138 97-117, looked up)”, the striatal damage entry in [10] is reported as “accelerate the development of striatal damage”.
